A value given as a limit tells only on which side of the number the result lay.

A short description of this data set: solubility in water of the azo compound. The format is physicochemical. The note with it: mixed salt of lithium and sodium.
Consider `Nc1c(N=Nc2ccc3c(O)c(N=Nc4ccc(N=Nc5ccc(S(=O)(=O)O)cc5)cc4S(=O)(=O)O)c(S(=O)(=O)O)cc3c2S(=O)(=O)O)cc(S(=O)(=O)O)c2cc(S(=O)(=O)O)c(N=Nc3ccc([N+](=O)[O-])cc3S(=O)(=O)O)c(O)c12` [compound 1], for which the solubility was no less than 100 mg/mL.

For `Nc1c(N=Nc2ccc3c(O)c(N=Nc4ccc(N=Nc5ccc(S(=O)(=O)O)cc5)cc4S(=O)(=O)O)c(S(=O)(=O)O)cc3c2S(=O)(=O)O)cc(S(=O)(=O)O)c2cc(S(=O)(=O)O)c(N=Nc3ccc(S(=O)(=O)O)cc3[N+](=O)[O-])c(O)c12` [compound 3], the solubility is no less than 100 mg/mL.

`Cc1cc(N=Nc2c(S(=O)(=O)O)cc3c(S(=O)(=O)O)c(N=Nc4cc(S(=O)(=O)O)c5cc(S(=O)(=O)O)c(N=Nc6ccc([N+](=O)[O-])cc6S(=O)(=O)O)c(O)c5c4N)ccc3c2O)c(OCCCS(=O)(=O)O)cc1N=Nc1ccc([N+](=O)[O-])cc1S(=O)(=O)O` [compound 16]: the solubility is no less than 100 mg/mL.

As to `Cc1cc(N=Nc2c(S(=O)(=O)O)cc3c(S(=O)(=O)O)c(N=Nc4cc(S(=O)(=O)O)c5cc(S(=O)(=O)O)c(N=Nc6ccc([N+](=O)[O-])cc6S(=O)(=O)O)c(O)c5c4N)ccc3c2O)c(OCCCS(=O)(=O)O)cc1N=Nc1ccc(S(=O)(=O)O)cc1C(=O)O` [compound 21], the solubility was no less than 100 mg/mL.
